This assay concerns the target T1, human type 1 glycine transporter (GlyT1) (Homo sapiens, UniProt P48067).
T1 construct: T98G cells (glioma cells) expressing human type 1 glycine transporter (GlyT1) were used
T1 sequence (P48067 1-706): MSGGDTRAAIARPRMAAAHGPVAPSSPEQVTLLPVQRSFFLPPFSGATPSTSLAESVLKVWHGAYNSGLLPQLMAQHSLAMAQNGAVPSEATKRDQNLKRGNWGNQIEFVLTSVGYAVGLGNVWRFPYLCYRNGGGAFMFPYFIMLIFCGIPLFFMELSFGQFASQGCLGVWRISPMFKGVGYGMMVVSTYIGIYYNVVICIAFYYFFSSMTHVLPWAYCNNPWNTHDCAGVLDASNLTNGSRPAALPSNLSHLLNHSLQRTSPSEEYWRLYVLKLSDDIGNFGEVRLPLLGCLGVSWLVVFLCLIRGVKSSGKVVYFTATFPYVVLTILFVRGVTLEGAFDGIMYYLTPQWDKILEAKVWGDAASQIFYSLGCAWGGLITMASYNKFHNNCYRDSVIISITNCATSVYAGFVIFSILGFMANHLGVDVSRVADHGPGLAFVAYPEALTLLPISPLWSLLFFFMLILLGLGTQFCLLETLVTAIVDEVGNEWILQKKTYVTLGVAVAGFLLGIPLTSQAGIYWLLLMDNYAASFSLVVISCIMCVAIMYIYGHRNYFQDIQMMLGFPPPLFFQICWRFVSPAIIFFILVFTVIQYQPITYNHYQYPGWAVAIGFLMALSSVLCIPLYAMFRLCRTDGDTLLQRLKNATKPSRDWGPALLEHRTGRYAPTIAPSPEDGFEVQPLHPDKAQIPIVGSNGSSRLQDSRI
In words: Glycine uptake inhibition experiment ([3H]glycine uptake). The class given is cell-based. The settings on record: GlyT1. In a few lines:
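T98G glioma cells expressing human GlyT1 were pretreated 10 min with compound in HEPES buffer pH 7.4 (0.2% BSA), then incubated with compound plus 250 nM final [3H]glycine for 15 min at room temperature. Intracellular radioactivity was counted after NaOH lysis; 10 μM ALX5407 defined non-specific uptake. IC50 came from 10^−9–10^−5 M curves.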
`CCn1cc(-c2cccc(C(NC(=O)c3cc(Cl)ccc3C(F)(F)F)C3(O)CCC(F)(F)CC3)c2)cn1` (single isomer, unassigned) [Compound 218, 5-chloro-N-[(4,4-difluoro-1-hydroxycyclohexyl)[3-(1-ethyl-1H-pyrazol-4-yl)phenyl]methyl}-2-(trifluoromethyl)benzamide] had an IC50 of 5900 nM.

`O=C(NC(c1cccc(Cl)c1F)C1(O)CCC(F)(F)CC1)c1cc(C(F)(F)F)ncc1Cl` (single isomer, unassigned) [Compound 219, 5-chloro-N-[(3-chloro-2-fluorophenyl)(4,4-difluoro-1-hydroxycyclohexyl)methyl]-2-(trifluoromethyl)pyridine-4-carboxamide] showed an IC50 of 920 nM.

For the compound `O=C(NC(c1cc(F)cc(Cl)c1)[C@]1(O)CC[C@@H](F)CC1)c1nccc(C(F)(F)F)c1Cl` (single isomer, unassigned) [Compound 220, 3-chloro-N-[(3-chloro-5-fluorophenyl)(cis-4-fluoro-1-hydroxycyclohexyl)methyl]-4-(trifluoromethyl)pyridine-2-carboxamide], the IC50 came to 1800 nM.

As to `CCn1cc(-c2cccc(C(NC(=O)c3c(Cl)ccc(C(F)(F)F)c3Cl)C3(O)CCC(F)(F)CC3)c2)cn1` (single isomer, unassigned) [Compound 221, 2,6-dichloro-N-{(4,4-difluoro-1-hydroxycyclohexyl)[3-(1-ethyl-1H-pyrazol-4-yl)phenyl]methyl}-3-(trifluoromethyl)benzamide], inhibition was half-maximal at 5600 nM (IC50).

`CCn1cc(-c2cccc(C(NC(=O)c3c(Cl)ccc(C(F)(F)F)c3Cl)C3(O)CCC(F)(F)CC3)c2)cn1` (single isomer, unassigned) [Compound 222, 2,6-dichloro-N-{(4,4-difluoro-1-hydroxycyclohexyl)[3-(1-ethyl-1H-pyrazol-4-yl)phenyl]methyl}-3-(trifluoromethyl)benzamide] registered an IC50 of 190 nM.

`O=C(NC(c1cccc(F)c1Cl)[C@]1(O)CC[C@@H](F)CC1)c1ccnc(C(F)(F)F)c1Cl` (single isomer, unassigned) [Compound 223, 3-chloro-N-[(2-chloro-3-fluorophenyl)(cis-4-fluoro-1-hydroxycyclohexyl)methyl]-2-(trifluoromethyl)pyridine-4-carboxamide]: the IC50 worked out at 56 nM.

Take `Cc1c(Cl)ccnc1C(=O)NC(c1cccc(F)c1Cl)[C@]1(O)CC[C@@H](F)CC1` (single isomer, unassigned) [Compound 224, 4-chloro-N-[(2-chloro-3-fluorophenyl)(cis-4-fluoro-1-hydroxycyclohexyl)methyl]-3-methylpyridine-2-carboxamide]: the IC50 is 270 nM.

In turn, `O=C(NC(c1ccc(F)c(Cl)c1)[C@]1(O)CC[C@@H](F)CC1)c1nccc(C(F)(F)F)c1Cl` (single isomer, unassigned) [Compound 225, 3-chloro-N-[(3-chloro-4-fluorophenyl)(cis-4-fluoro-1-hydroxycyclohexyl)methyl]-4-(trifluoromethyl)pyridine-2-carboxamide] gave a concentration for half-maximal inhibition (IC50) of 390 nM.

`O=C(NC(c1cccc(Cl)c1F)C1(O)CCC(F)(F)CC1)c1nc(C(F)(F)F)ccc1Cl` (single isomer, unassigned) [Compound 226, 3-chloro-N-[(3-chloro-2-fluorophenyl)(4,4-difluoro-1-hydroxycyclohexyl)methyl]-6-(trifluoromethyl)pyridine-2-carboxamide] showed a half-maximal inhibitory concentration (IC50) of 1300 nM.

Regarding `O=C(NC(c1ccc(F)c(Cl)c1)[C@]1(O)CC[C@@H](F)CC1)c1nccc(C(F)(F)F)c1Cl` (single isomer, unassigned) [Compound 228, 3-chloro-N-[(3-chloro-4-fluorophenyl)(cis-4-fluoro-1-hydroxycyclohexyl)methyl]-4-(trifluoromethyl)pyridine-2-carboxamide], half-maximal inhibition (IC50) was put at 4200 nM.

`O=C(NC(c1cccc(Cl)c1)C1(O)CCCCC1)c1nccc(C(F)(F)F)c1Cl` (single isomer, unassigned) [Compound 229, 3-chloro-N-[(3-chlorophenyl)(1-hydroxycyclohexyl)methyl]-4-(trifluoromethyl)pyridine-2-carboxamide] displayed a half-maximal inhibitory concentration (IC50) of 28 nM.

The compound `O=C(NC(c1cccc(Cl)c1)C1(O)CCCCC1)c1nccc(C(F)(F)F)c1Cl` (single isomer, unassigned) [Compound 230, 3-chloro-N-[(3-chlorophenyl)(1-hydroxycyclohexyl)methyl]-4-(trifluoromethyl)pyridine-2-carboxamide] returned an IC50 of 2800 nM.

On to `[2H]C1([2H])C([2H])([2H])C([2H])([2H])C(O)(C(NC(=O)c2nccc(C(F)(F)F)c2Cl)c2cccc(Cl)c2)C([2H])([2H])C1([2H])[2H]` (single isomer, unassigned) [Compound 231, 3-chloro-N-{(3-chlorophenyl)[1-hydroxy(^2H10)cyclohexyl]methyl}-4-(trifluoromethyl)pyridine-2-carboxamide], for which the 50% inhibitory concentration (IC50) is 40 nM.

The compound `[2H]C1([2H])C([2H])([2H])C([2H])([2H])C(O)(C(NC(=O)c2nccc(C(F)(F)F)c2Cl)c2cccc(Cl)c2)C([2H])([2H])C1([2H])[2H]` (single isomer, unassigned) [Compound 232, 3-chloro-N-{(3-chlorophenyl)[1-hydroxy(^2H10)cyclohexyl]methyl}-4-(trifluoromethyl)pyridine-2-carboxamide] had a half-maximal inhibitory concentration (IC50) of 1400 nM.

In turn, `O=C(N[C@@H](c1cccc(F)c1)C1(O)CCC(F)(F)CC1)c1nccc(C(F)(F)F)c1Cl` (single isomer, unassigned) [Compound 233, 3-chloro-N-[(4,4-difluoro-1-hydroxycyclohexyl)(3-fluorophenyl)methyl]-4-(trifluoromethyl)pyridine-2-carboxamide] came in with an IC50 of 120 nM.

In turn, `O=C(NC(c1cc(Cl)ccc1Cl)C1(O)CCC(F)(F)CC1)c1nccc(C(F)(F)F)c1Cl` (single isomer, unassigned) [Compound 234, 3-chloro-N-[(2,5-dichlorophenyl)(4,4-difluoro-1-hydroxycyclohexyl)methyl]-4-(trifluoromethyl)pyridine-2-carboxamide] displayed a half-maximal inhibitory concentration (IC50) of 280 nM.

Take `O=C(NC(c1cc(Cl)ccc1Cl)C1(O)CCC(F)(F)CC1)c1nccc(C(F)(F)F)c1Cl` (single isomer, unassigned) [Compound 235, 3-chloro-N-[(2,5-dichlorophenyl)(4,4-difluoro-1-hydroxycyclohexyl)methyl]-4-(trifluoromethyl)pyridine-2-carboxamide]: half-maximal inhibition (IC50) required 740 nM.

For the compound `O=C(NC(c1cccc(F)c1)C1(O)CCC(F)CC1)c1nccc(C(F)(F)F)c1Cl` (single isomer, unassigned) [Compound 236, 3-chloro-N-[(cis-4-fluoro-1-hydroxycyclohexyl)(3-fluorophenyl)methyl]-4-(trifluoromethyl)pyridine-2-carboxamide], the IC50 is 100 nM.

With `O=C(NC(c1ccccc1F)C1(O)CCC(F)(F)CC1)c1nccc(C(F)(F)F)c1Cl` (single isomer, unassigned) [Compound 237], the concentration for half-maximal inhibition (IC50) turned out to be 250 nM.

In turn, `O=C(NC(c1ccccc1)[C@]1(O)CC[C@@H](F)CC1)c1nccc(C(F)(F)F)c1Cl` (single isomer, unassigned) [Compound 238, 3-chloro-N-[(cis-4-fluoro-1-hydroxycyclohexyl)(phenyl)methyl]-4-(trifluoromethyl)pyridine-2-carboxamide] showed a 50% inhibitory concentration (IC50) of 220 nM.

As to `O=C(NC(c1ccccc1F)[C@]1(O)CC[C@@H](F)CC1)c1nccc(C(F)(F)F)c1Cl` (single isomer, unassigned) [Compound 239, 3-chloro-N-[(cis-4-fluoro-1-hydroxycyclohexyl)(2-fluorophenyl)methyl]-4-(trifluoromethyl)pyridine-2-carboxamide], the midpoint of inhibition, the IC50, lay at 390 nM.

The compound `O=C(NC(c1ccccc1F)[C@]1(O)CC[C@H](F)CC1)c1nccc(C(F)(F)F)c1Cl` (single isomer, unassigned) [Compound 240, 3-chloro-N-[(trans-4-fluoro-1-hydroxycyclohexyl)(2-fluorophenyl)methyl]-4-(trifluoromethyl)pyridine-2-carboxamide] came in with an IC50 of 230 nM.

`O=C(NC(c1cccc(F)c1Cl)[C@]1(O)CC[C@@H](F)CC1)c1nccc(C(F)F)c1Cl` (single isomer, unassigned) [Compound 241, 3-chloro-N-[(2-chloro-3-fluorophenyl)(cis-4-fluoro-1-hydroxycyclohexyl)methyl]-4-(difluoromethyl)pyridine-2-carboxamide] showed an IC50 of 110 nM.

Consider `O=C(NC(c1cncc(Cl)c1)[C@]1(O)CC[C@@H](F)CC1)c1nccc(C(F)(F)F)c1Cl` (single isomer, unassigned) [Compound 242, 3-chloro-N-[(5-chloropyridin-3-yl)(cis-4-fluoro-1-hydroxycyclohexyl)methyl]-4-(trifluoromethyl)pyridine-2-carboxamide], for which half-maximal inhibition (IC50) required 240 nM.

As a reminder, the IC50 is the midpoint of a concentration-inhibition curve.

The values above are taken from patent publication US20160130278A1 (TAISHO PHARMACEUTICAL CO., LTD, priority 2013, published 2016).
